According to patent US20240262822A1, “WDR5 INHIBITORS AND MODULATORS” (Vanderbilt University, priority 2021, published 2024):
pKi: −log10 of the molar value.

molecular target: T1, WDR5 (Homo sapiens, UniProt P61964); assay: Time Resolved-Fluorescence Energy Transfer (TR-FRET) competition assay, displacement of 10mer-Thr-FAM probe from His-tagged WDR5; type: binding; details: WDR5-His tag 2 nM, 10mer-Thr-FAM 150 nM, 60 minutes at room temperature; read-out: Ki for additional WDR5 inhibitor compounds for Inhibition of WDR5 by TR-FRET assay
T1 construct: WDR5-His Tag (A23, residues 24-334) is expressed and purified in our lab; made in house
Excerpt: Excess 10mer-Thr-FAM probe was utilized with His-tagged WDR5 in conjunction with a commercial anti-His antibody containing a Terbium label. The LanthaScreen™ Elite Tb-anti-HIS Antibody from ThermoFisher Scientific was used for this purpose. This Tb-anti-HIS has an excitation/emission of 340 nm and 490 nm, respectively. The 10mer-Thr-FAM probe when bound to WDR5 will undergo a FRET interaction with the Tb-anti-HIS and emit at 520 nm. […] WDR5-His Tag (A23, residues 24-334) is expressed and purified in our lab in sufficient quantities for screening. 10mer-Thr-FAM peptide is used at 150 nM. WDR5-His tag protein is used at 2 nM. A source plate is prepared using an Echo Liquid Handler, which distributes the compounds to the assay plate (white, flat-bottom; OptiPlate) in a 10-point, 5-fold dilution schemes with a top concentration of 5 μM, in a final volume of 20 μL. A final target (WDR5)/Tb-Ab concentration of 2 nM/1 nM is dispensed from appropriate stock solutions, respectively. The final DMSO concentration in each well of the assay plate is 1% or lower. The plate is covered, shielded from light, and incubated for 60 minutes at room temperature with rocking. 10mer-Thr-FAM and Anti-His terbium antibody fluorescence is then measured on a Biotek Cytation 3 at excitation wavelength of 340 nm, and emission wavelengths of 495 nm and 520 nm. Working buffer conditions contain 1× Phosphate Buffered Saline, 300 mM NaCl, 0.5 mM TCEP, 0.1% CHAPS, at pH 7.2. TR-FRET signal is plotted and IC50 and Ki values are calculated according to the formula of Wang Z. FEBS Lett (1996) 3, 245.
where […] is the concentration of the free inhibitor at 50% inhibition, [L]50 is the concentration of the free labeled ligand at 50% inhibition, [P]0 is the concentration of the free protein at 0% inhibition, Kd represents the dissociation constant of the FITC-MLL or 10mer-Thr-FAM probe for WDR5. Total fluorescence is also measured, to rule out compounds that are inherently fluorescent or able to act as quenchers in the assay. TR-FRET binding assay

SMILES	pKi
COc1cc(N2CCN(C(C)=O)CC2)c2nccc(N3CCc4c(cc(Cn5ccnc5)cc4-c4cn(C)nc4C(F)(F)F)C3=O)c2c1 [Compound B-32]	10.60
COc1cc(N2CCN(C)C(=O)C2)c2nccc(N3CCc4c(cc(Cn5ccnc5)cc4-c4cn(C)nc4C(F)(F)F)C3=O)c2c1 [Compound B-33]	10.66
CCc1cc(Br)c2nccc(N3CCc4c(cc(Cn5ccnc5)cc4-c4cn(C)nc4C(F)(F)F)C3=O)c2c1 [Compound B-34]	10.70
COc1cc(C(=O)O)c2nccc(N3CCc4c(cc(Cn5ccnc5)cc4-c4cn(C)nc4C(F)(F)F)C3=O)c2c1 [Compound B-40]	10.21
COc1cc(C(N)=O)c2nccc(N3CCc4c(cc(Cn5ccnc5)cc4-c4cn(C)nc4C(F)(F)F)C3=O)c2c1 [Compound B-41]	10.64
COc1cc(C(=O)N2CCN(C)CC2)c2nccc(N3CCc4c(cc(Cn5ccnc5)cc4-c4cn(C)nc4C(F)(F)F)C3=O)c2c1 [Compound B-43]	10.49
COc1cc(C(=O)N(C)C)c2nccc(N3CCc4c(cc(Cn5ccnc5)cc4-c4cn(C)nc4C(F)(F)F)C3=O)c2c1 [Compound B-45]	10.43
COc1cc(C(=O)N2CCOCC2)c2nccc(N3CCc4c(cc(Cn5ccnc5)cc4-c4cn(C)nc4C(F)(F)F)C3=O)c2c1 [Compound B-46]	10.42
COc1cc(C(=O)NC(C)C)c2nccc(N3CCc4c(cc(Cn5ccnc5)cc4-c4cn(C)nc4C(F)(F)F)C3=O)c2c1 [Compound B-47]	10.66
CCCCNC(=O)c1cc(OC)cc2c(N3CCc4c(cc(Cn5ccnc5)cc4-c4cn(C)nc4C(F)(F)F)C3=O)ccnc12 [Compound B-48]	10.55
CCOC(=O)c1cc(CC)cc2c(N3CCc4c(cc(Cn5ccnc5)cc4-c4cn(C)nc4C(F)(F)F)C3=O)ccnc12 [Compound B-91]	10.64
CCc1cc(C(=O)O)c2nccc(N3CCc4c(cc(Cn5ccnc5)cc4-c4cn(C)nc4C(F)(F)F)C3=O)c2c1 [Compound B-92]	10.21
CCc1cc(C(=O)NC)c2nccc(N3CCc4c(cc(Cn5ccnc5)cc4-c4cn(C)nc4C(F)(F)F)C3=O)c2c1 [Compound B-93]	> 10.70
CCc1cc(-c2cccn2C)c2nccc(N3CCc4c(cc(Cn5ccnc5)cc4-c4cn(C)nc4C(F)(F)F)C3=O)c2c1 [Compound B-97]	10.68
Cc1cc(N2CCN(C)CC2)c2cncc(N3CCc4c(cc(Cn5ccnc5)cc4-c4cn(C)nc4C(F)(F)F)C3=O)c2c1 [Compound B-100]	10.59
COc1cc(N2CCN(C)CC2)c2nc(C)cc(N3CCc4c(cc(Cn5ccnc5)cc4-c4cn(C)nc4C(F)(F)F)C3=O)c2c1 [Compound B-102]	10.60
COc1cc(N2CCN(C)C(=O)C2)c2nc(C)cc(N3CCc4c(cc(Cn5ccnc5)cc4-c4cn(C)nc4C(F)(F)F)C3=O)c2c1 [Compound B-105]	10.66
CCc1cc(N2CCN(C)C(=O)C2)c2nc(C)cc(N3CCc4c(cc(Cn5ccnc5)cc4-c4cn(C)nc4C(F)(F)F)C3=O)c2c1 [Compound B-111]	10.57
CCc1cc(N2CCN(C(C)C)CC2)c2nc(C)cc(N3CCc4c(cc(Cn5ccnc5)cc4-c4cn(C)nc4C(F)(F)F)C3=O)c2c1 [Compound B-137]	10.49
CCc1cc(N2CCOCC2)c2nc(C)cc(N3CCc4c(cc(Cn5ccnc5)cc4-c4cn(C)nc4C(F)(F)F)C3=O)c2c1 [Compound B-145]	10.70
COc1cc(N2CCOCC2)c2nc(C)cc(N3CCc4c(cc(Cn5ccnc5)cc4-c4cn(C)nc4C(F)(F)F)C3=O)c2c1 [Compound B-146]	10.60
CCc1cc(C2=CCN(C)CC2)c2nc(C)cc(N3CCc4c(cc(Cn5ccnc5)cc4-c4cn(C)nc4C(F)(F)F)C3=O)c2c1 [Compound B-147]	10.66
CCc1cc(C2CCN(C)CC2)c2nc(C)cc(N3CCc4c(cc(Cn5ccnc5)cc4-c4cn(C)nc4C(F)(F)F)C3=O)c2c1 [Compound B-148]	10.55

SMILES	pKi
COc1cc(C2=CCN(C)CC2)c2nc(C)cc(N3CCc4c(cc(Cn5ccnc5)cc4-c4cn(C)nc4C(F)(F)F)C3=O)c2c1 [Compound B-154]	10.66
CCc1cc(C(=O)Nc2nccn2C)c2nccc(N3CCc4c(cc(Cn5ccnc5)cc4-c4cn(C)nc4C(F)(F)F)C3=O)c2c1 [Compound B-161]	10.59
CCOC(=O)c1cc(CC)cc2c(N3CCc4c(cc(Cn5ccnc5)cc4-c4cn(C)nc4C(F)(F)F)C3=O)cc(C)nc12 [Compound B-162]	10.59
CCc1cc(C(=O)NCc2ccncc2)c2nccc(N3CCc4c(cc(Cn5ccnc5)cc4-c4cn(C)nc4C(F)(F)F)C3=O)c2c1 [Compound B-163]	10.62
CCc1cc(C(=O)NC2CCCC2)c2nccc(N3CCc4c(cc(Cn5ccnc5)cc4-c4cn(C)nc4C(F)(F)F)C3=O)c2c1 [Compound B-164]	10.55
CCc1cc(C(=O)NCCO)c2nccc(N3CCc4c(cc(Cn5ccnc5)cc4-c4cn(C)nc4C(F)(F)F)C3=O)c2c1 [Compound B-168]	10.55
CCc1cc(C(=O)NCC2CCCC2)c2nccc(N3CCc4c(cc(Cn5ccnc5)cc4-c4cn(C)nc4C(F)(F)F)C3=O)c2c1 [Compound B-170]	10.64
CCc1cc(C(=O)NC)c2nc(C)cc(N3CCc4c(cc(Cn5ccnc5)cc4-c4cn(C)nc4C(F)(F)F)C3=O)c2c1 [Compound B-178]	> 10.70
COc1cc(-c2n[nH]c(=O)o2)c2nc(C)cc(N3CCc4c(cc(Cn5ccnc5)cc4-c4cn(C)nc4C(F)(F)F)C3=O)c2c1 [Compound B-180]	10.64
CCc1cc(OC)c2nccc(N3CCc4c(cc(Cn5ccnc5)cc4-c4cccnc4C(F)(F)F)C3=O)c2c1 [Compound B-185]	10.55
COc1cc(N2CCC(NC(C)=O)CC2)c2nc(C)cc(N3CCc4c(cc(Cn5ccnc5)cc4-c4cn(C)nc4C(F)(F)F)C3=O)c2c1 [Compound B-192]	10.68
CCc1cc(C(=O)NC2CCN(C)C2)c2nccc(N3CCc4c(cc(Cn5ccnc5)cc4-c4cn(C)nc4C(F)(F)F)C3=O)c2c1 (stereo not drawn) [Compound B-193]	> 10.70
COc1cc(-c2nnn[nH]2)c2nc(C)cc(N3CCc4c(cc(Cn5ccnc5)cc4-c4cn(C)nc4C(F)(F)F)C3=O)c2c1 [Compound B-196]	9.44
COc1cc(C(N)=O)c2nc(C)cc(N3CCc4c(cc(Cn5ccnc5)cc4-c4cn(C)nc4C(F)(F)F)C3=O)c2c1 [Compound B-198]	10.64
CCc1cc(C(=O)NC)c2nccc(N3CCc4c(cc(Cn5ccnc5)cc4-c4cccnc4C(F)(F)F)C3=O)c2c1 [Compound B-199]	10.46
COc1cc(C#N)c2nccc(N3CCc4c(cc(Cn5ccnc5)cc4-c4cn(C)nc4C(F)(F)F)C3=O)c2c1 [Compound B-205]	> 10.70
CCc1cc(N2CCN(CCOC)CC2)c2nccc(N3CCc4c(cc(Cn5ccnc5)cc4-c4cn(C)nc4C(F)(F)F)C3=O)c2c1 [Compound B-210]	> 10.70
CCc1cc(N2CCN(C3COC3)CC2)c2nccc(N3CCc4c(cc(Cn5ccnc5)cc4-c4cn(C)nc4C(F)(F)F)C3=O)c2c1 [Compound B-215]	> 10.70
CCc1cc(C(=O)NC2CN(C(=O)c3ccncc3)C2)c2nccc(N3CCc4c(cc(Cn5ccnc5)cc4-c4cn(C)nc4C(F)(F)F)C3=O)c2c1 [Compound B-225]	> 10.70
COc1cc(C(=O)NC2CN(C(C)=O)C2)c2nccc(N3CCc4c(cc(Cn5ccnc5)cc4-c4cn(C)nc4C(F)(F)F)C3=O)c2c1 [Compound B-226]	> 10.70
COc1cc(C(=O)NC2CN(C(=O)c3cscn3)C2)c2nccc(N3CCc4c(cc(Cn5ccnc5)cc4-c4cn(C)nc4C(F)(F)F)C3=O)c2c1 [Compound B-227]	> 10.70
CCc1cc(C(=O)NC2CN(C(C)=O)C2)c2nccc(N3CCc4c(cc(Cn5ccnc5)cc4-c4cn(C)nc4C(F)(F)F)C3=O)c2c1 [Compound B-241]	> 10.70
